Assays:
Assay in all cases: relative viability (nuclei count vs DMSO), 5 days (fraction); higher = more cells survive
OSI-027 + Foretinib = compound: COc1cccc2cc(-c3nc([C@H]4CC[C@H](C(=O)O)CC4)n4ncnc(N)c34)[nH]c12 [OSI-027] + COc1cc2c(Oc3ccc(NC(=O)C4(C(=O)Nc5ccc(F)cc5)CC4)cc3F)ccnc2cc1OCCCN1CCOCC1 [Foretinib] (partner 0.25 µM)
How it was run: (§1)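 Relative viability was taken as the ratio of nuclei in treated wells to nuclei in vehicle wells. Lung cancer cell lines in 1536-well plates received compounds by pin tool one day after seeding, either one drug alone or a fixed anchor-drug dose plus five library-drug doses (not always all listed) in √10 steps. Nuclei were counted on 4× images after 5 days of treatment, and values are medians of duplicate plates.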

Vemurafenib + Olaparib = compound: CCCS(=O)(=O)Nc1ccc(F)c(C(=O)c2c[nH]c3ncc(-c4ccc(Cl)cc4)cc23)c1F [Vemurafenib] + O=C(c1cc(Cc2n[nH]c(=O)c3ccccc23)ccc1F)N1CCN(C(=O)C2CC2)CC1 [Olaparib] (partner 8 µM)
How it was run: as §1

Vemurafenib + Phenformin = compound: CCCS(=O)(=O)Nc1ccc(F)c(C(=O)c2c[nH]c3ncc(-c4ccc(Cl)cc4)cc23)c1F [Vemurafenib] + N=C(N)NC(=N)NCCc1ccccc1 [Phenformin] (partner 250 µM)
How it was run: as §1

OSI-027 + Vorinostat = compound: COc1cccc2cc(-c3nc([C@H]4CC[C@H](C(=O)O)CC4)n4ncnc(N)c34)[nH]c12 [OSI-027] + O=C(CCCCCCC(=O)Nc1ccccc1)NO [Vorinostat] (partner 1 µM)
How it was run: as §1

Cell Line | relative viability (OSI-027 + Foretinib; first compound 0.01 µM) | relative viability (OSI-027 + Foretinib; first compound 0.03162 µM) | relative viability (OSI-027 + Foretinib; first compound 0.1 µM) | relative viability (OSI-027 + Foretinib; first compound 0.3162 µM) | relative viability (OSI-027 + Foretinib; first compound 1 µM) | relative viability (Vemurafenib + Olaparib; first compound 0.03162 µM) | relative viability (Vemurafenib + Olaparib; first compound 0.1 µM) | relative viability (Vemurafenib + Olaparib; first compound 0.3162 µM) | relative viability (Vemurafenib + Olaparib; first compound 1 µM) | relative viability (Vemurafenib + Phenformin; first compound 0.03162 µM) | relative viability (Vemurafenib + Phenformin; first compound 0.1 µM) | relative viability (Vemurafenib + Phenformin; first compound 0.3162 µM) | relative viability (Vemurafenib + Phenformin; first compound 1 µM) | relative viability (OSI-027 + Vorinostat; first compound 0.01 µM) | relative viability (OSI-027 + Vorinostat; first compound 0.03162 µM) | relative viability (OSI-027 + Vorinostat; first compound 0.1 µM) | relative viability (OSI-027 + Vorinostat; first compound 0.3162 µM) | relative viability (OSI-027 + Vorinostat; first compound 1 µM)
LXF-289 | 0.956 | 0.989 | 1.01 | 0.903 | 0.747 | 1.02 | 1.06 | 1.09 | 1 | 0.456 | 0.457 | 0.435 | 0.551 | 0.767 | 0.836 | 0.827 | 0.902 | 0.787
NCI-H596 | 0.834 | 0.923 | 0.781 | 0.59 | 0.602 | 0.742 | 0.657 | 0.63 | 0.719 | 0.871 | 0.748 | 0.725 | 0.56 | 0.459 | 0.685 | 0.497 | 0.523 | 0.416
NCI-H358 | 0.68 | 0.562 | 0.699 | 0.703 | 0.576 | 0.539 | 0.745 | 0.625 | 0.521 | 0.282 | 0.19 | 0.448 | 0.455 | 0.751 | 0.653 | 0.717 | 0.664 | 0.503
NCI-H1355 | 1.01 | 0.784 | 0.928 | 0.763 | 0.33 | 0.722 | 0.671 | 0.828 | 0.74 | 0.424 | 0.426 | 0.36 | 0.487 | 0.648 | 0.632 | 0.622 | 0.475 | 0.3
NCI-H727 | 0.601 | 1.03 | 0.863 | 0.812 | 0.398 | 0.748 | 0.774 | 0.726 | 0.51 | 0.508 |  | 0.718 | 0.559 | 1.08 | 1.06 | 1.11 | 1.23 | 1.03
NCI-H2023 | 0.964 | 0.925 | 0.785 | 0.765 | 0.461 | 0.463 | 0.42 | 0.483 | 0.479 | 0.376 | 0.381 | 0.378 | 0.354 | 0.7 | 0.698 | 0.526 | 0.581 | 0.34
SW 900 |  | 0.644 | 0.725 | 0.873 | 0.405 | 0.812 | 0.607 | 0.939 | 0.994 | 0.532 | 0.454 | 0.476 | 0.614 | 0.545 | 0.592 | 0.386 | 0.421 | 0.206
NCI-H2009 | 1.25 | 1.14 | 1.18 | 1.11 | 0.801 | 0.61 | 0.661 | 0.612 | 0.652 | 0.458 | 0.418 | 0.343 | 0.361 | 0.735 | 0.718 | 0.708 | 0.675 | 0.588
HCC-78 | 0.551 | 0.511 | 0.52 | 0.425 | 0.366 | 0.73 | 0.784 | 1.13 | 0.881 | 0.656 | 0.618 | 0.817 | 0.727 | 0.477 | 0.326 | 0.384 | 0.329 | 0.268
